The nature of data set [1]: pKa by spectrophotometric titration. The class given is physicochemical. The following applies: pH 2.8 to 13.7, 240-350 nm. The procedure: The pKa of the nucleoside analog was determined by spectrophotometric titration (pH 2.8 to 13.7) [Kazimierczuk, Z., Shugar, D. (1974) Acta Biochim. Pol., 21, 455-463.1 at 240-350 nm to give values for pK1 and pK2 as 4.3 (±0.1) and 9.9 (±0.2), respectively.

The nature of data set [2]: keto:enol tautomeric equilibrium from UV spectra in dioxane:water mixtures, extrapolated to pure water. The class given is physicochemical. The following applies: log fraction of enol vs ET(30), extrapolated to ET(30) of pure water (63.1). The text has this: The procedure of Voegel et al. [Voegel, J. J., von Krosigk, U., Benner, S. A. (1993) J. Org. Chem., 58, 7542-7547.] was then used to estimate a value of the keto:enol tautomers in pure water for dC7 isoG. This procedure exploits the fact that in nonpolar solvents, the UV spectra for both disoG and C7 isoG shift from their form in pure water (which resembles the N-methylated derivatives) to a form that resembles the UV spectra of the O-methylated derivatives. This is interpreted as evidence that the tautomeric equilibrium shifts from one favoring the keto tautomer in pure water to one favoring the enol tautomer in pure dioxane.
To obtain quantitative data, the ratio of the extinction coefficients at two wavelengths (λ=296 and 255 nm for disoG and λ=305 and 254 nm for dC7 isoG), chosen to maximize the difference between the keto and enol forms, was chosen as a metric for the tautomeric equilibrium constant in dioxane:water mixtures in varying proportions. This was plotted against the Dimroth ET(30) value, which provides a measure of the local dielectric constant [Kosower, E. M. (1958) J. Am. Chem. Soc., 80, 3253-3260] [Dimroth, v. K., Reichardt, C., Siepmann, T., Bohlmann, F. (1963) Liebigs Ann. Chem., 661, 1-37.] [Reichardt, C., Harbusch-Goernert, E. (1983) Liebigs Ann. Chem., 721-743] [Gordon, A., Katritzky, A. R. (1968) Tetrahedron Lett., 23, 2767-2770.] […]

For data set [3] the following is noted: comparison value for the natural nucleoside; cited from earlier work.

Where two headings read alike, the source gives them in different places.

In the case of `Nc1[nH]c(=O)nc2c1ccn2[C@H]1C[C@H](O)[C@@H](CO)O1` [dC7 isoG, 2′-deoxy-7-deaza-isoguanosine], in data set [1], the pK1 is given as 4.3 (±0.1) and the pK2 is 9.9 (±0.2). Moreover, the “KTAUT (=[keto]/[enol])” value in data set [2] was “≈ 10^3”.
Turning to `Nc1nc2c(ncn2[C@@H]2O[C@H](CO)[C@@H](O)[C@H]2O)c(=O)[nH]1` [guanosine], the “KTAUT (=[keto]/[enol])” value in data set [3] is 10^4-10^5.

The values are drawn from patent publication US7741294B1, “Non-standard nucleobases implementing the isocytidine and isoguanosine hydrogen bonding patterns” (priority 2005, dated 2010).
